Experimental data reported in patent US20260224527A1, “USES OF ANTI-PSYCHOTIC AGENTS” (LB PHARMACEUTICALS INC., priority 2023, published 2026).

What was measured:
[1] = system: PCP-treated rats; experiment: Novel Object Recognition (NOR) assay in scPCP model; type: in vivo, rat; conditions: for effect on Discrimination Index (DI): 3 hr post-dose
Experimental: (§1) Differences in discrimination index ((time spent exploring novel−time spent exploring familiar)/total exploration time) are depicted. scPCP rats treated with risperidone (Risp) served as a positive control. […] Rats treated with cariprazine (Cari) served as a positive control.
Efficacy of LB-102, LB-103, and LB-104 at different doses was evaluated in rats in a Novel Object Recognition (NOR) assay, a well-established model recapitulating cognitive and negative aspects of the PANSS scale of schizophrenia. In this assay, animals were treated for several weeks with a low dose of phencyclidine (PCP) to impair the ability of the rat to discern between novel and familiar objects. Typically rats, like humans, would spend more time exploring a novel object than a familiar one.
In this NOR study the efficacies of LB-102, LB-103, and LB-104 were compared to known antipsychotic risperidone for its ability to restore normal differentiation between novel and familiar object exploration in PCP-treated rats. Cognitive measurements were taken at 3 hr post-dose for LB-102, LB-103, and LB-104 and 30 min for risperidone. The endpoint of this study was the Discrimination Index (DI), a normalized ratio of time spent exploring a novel object compared to a familiar one.

[2] = system: PCP-treated rats; experiment: Social interaction (sniffing index, SI) assay in scPCP model; type: in vivo, rat
Experimental: as §1
The sniffing component of the SI assay was carried out as described in (J. C. Neil, S. Barnes, S. Cook, B. Grayson, N. F. Iris, S. L. McLean, S. Snigdha, L. Rajagopa, and M. K. Harte, “Animal models of cognitive dysfunction and negative symptoms of schizophrenia: focus on NMDA receptor antagonism”, Pharmacol. Ther., 2010, 128, 419-423) in groups of 12 rats.

[3] = biological target: D1 receptor subtype (Homo sapiens, UniProt P21728); conditions: cited from earlier work
D1 receptor subtype, sequence (P21728 whole entry): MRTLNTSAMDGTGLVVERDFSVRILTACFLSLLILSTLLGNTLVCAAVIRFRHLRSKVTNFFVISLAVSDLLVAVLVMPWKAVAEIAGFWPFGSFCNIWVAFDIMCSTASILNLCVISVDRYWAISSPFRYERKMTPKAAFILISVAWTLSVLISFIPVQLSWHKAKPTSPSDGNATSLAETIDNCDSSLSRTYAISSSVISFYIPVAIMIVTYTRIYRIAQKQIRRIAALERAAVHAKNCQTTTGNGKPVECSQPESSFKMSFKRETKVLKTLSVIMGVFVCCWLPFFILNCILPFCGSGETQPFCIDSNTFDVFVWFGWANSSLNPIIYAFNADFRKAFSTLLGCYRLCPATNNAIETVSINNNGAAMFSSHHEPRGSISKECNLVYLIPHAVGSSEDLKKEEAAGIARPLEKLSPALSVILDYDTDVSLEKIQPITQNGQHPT

[4] = biological target: T1, D4 receptor subtype (Homo sapiens, UniProt P21917); conditions: cited from earlier work
T1 sequence (P21917 1-419): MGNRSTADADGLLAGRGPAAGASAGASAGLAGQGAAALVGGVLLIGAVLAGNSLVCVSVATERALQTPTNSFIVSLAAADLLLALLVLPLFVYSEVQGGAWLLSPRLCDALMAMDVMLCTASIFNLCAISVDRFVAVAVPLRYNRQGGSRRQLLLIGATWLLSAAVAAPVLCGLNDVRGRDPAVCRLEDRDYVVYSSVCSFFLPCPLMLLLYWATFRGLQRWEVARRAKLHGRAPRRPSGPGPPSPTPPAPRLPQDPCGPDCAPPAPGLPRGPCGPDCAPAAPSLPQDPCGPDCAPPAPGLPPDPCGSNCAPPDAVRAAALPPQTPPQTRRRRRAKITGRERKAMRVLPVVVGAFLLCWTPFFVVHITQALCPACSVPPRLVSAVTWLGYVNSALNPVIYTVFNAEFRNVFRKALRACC

[5] = biological target: D5 receptor subtype (Homo sapiens, UniProt P21918); conditions: cited from earlier work
D5 receptor subtype, sequence (P21918 whole entry): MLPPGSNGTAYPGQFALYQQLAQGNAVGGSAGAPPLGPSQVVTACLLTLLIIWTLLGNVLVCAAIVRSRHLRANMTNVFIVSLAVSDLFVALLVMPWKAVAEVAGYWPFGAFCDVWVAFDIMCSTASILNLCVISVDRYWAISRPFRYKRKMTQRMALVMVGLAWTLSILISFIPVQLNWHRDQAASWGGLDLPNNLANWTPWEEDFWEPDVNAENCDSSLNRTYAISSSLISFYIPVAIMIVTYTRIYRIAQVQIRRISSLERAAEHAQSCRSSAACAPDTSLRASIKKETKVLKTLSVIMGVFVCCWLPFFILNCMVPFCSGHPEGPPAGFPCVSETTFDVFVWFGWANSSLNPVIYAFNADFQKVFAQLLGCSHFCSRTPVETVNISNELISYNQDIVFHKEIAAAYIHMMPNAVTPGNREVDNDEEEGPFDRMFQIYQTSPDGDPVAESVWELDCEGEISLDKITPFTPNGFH

[6] = biological target: 5-HT2a receptor (Homo sapiens, UniProt P28223); conditions: compared to other antipsychotics; cited from earlier work
5-HT2a receptor, sequence (P28223 whole entry): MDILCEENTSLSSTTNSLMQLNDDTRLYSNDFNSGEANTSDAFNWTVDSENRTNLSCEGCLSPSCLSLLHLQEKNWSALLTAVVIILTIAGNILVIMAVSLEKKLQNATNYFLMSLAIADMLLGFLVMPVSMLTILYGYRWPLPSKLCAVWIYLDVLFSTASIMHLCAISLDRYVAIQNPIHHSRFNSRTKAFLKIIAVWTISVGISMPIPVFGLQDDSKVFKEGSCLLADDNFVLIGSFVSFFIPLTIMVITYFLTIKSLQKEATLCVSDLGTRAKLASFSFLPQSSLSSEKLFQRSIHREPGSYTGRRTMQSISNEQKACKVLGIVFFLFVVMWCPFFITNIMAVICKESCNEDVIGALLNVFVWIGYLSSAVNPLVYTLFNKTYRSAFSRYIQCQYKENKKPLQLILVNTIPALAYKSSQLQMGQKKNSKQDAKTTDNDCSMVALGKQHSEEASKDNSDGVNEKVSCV

[7] = system: serotonin receptor subtypes; conditions: cited from earlier work
[8] = system: alpha-adrenergic receptor subtypes; conditions: cited from earlier work
[9] = system: histamine receptor subtypes; conditions: cited from earlier work
[10] = system: muscarinic receptors; conditions: cited from earlier work
[11] = system: sigma sites; conditions: cited from earlier work
[12] = 2014 study, rank among 30 psychiatric drugs; cited from earlier work

Structure (SMILES) | effect on Discrimination Index (DI) ([1]; 15 mg/kg) | effect on Discrimination Index (DI) ([1]; 45 mg/kg) | effect on sniffing index (social interaction) ([2]; 45 mg/kg) | affinity [3] | affinity [4] | affinity [5] | activity at the 5-HT2a receptor [6] | affinity [7] | affinity [8] | affinity [9] | affinity [10] | affinity [11] | passive diffusion across a PAMPA membrane (Pe) [12] | NOR result compared to LB-104 [1] | effect on sniffing index (social interaction) ([2]; 5 mg (printed))
CCN1CCC[C@@H]1CNC(=O)c1cc(S(=O)(=O)CC)c(NC)cc1OC [LB-104] | significant improvement | significant improvement | significant effect | – | – | – | – | – | – | – | – | – | – | – | –
CCN1CCCC1CNC(=O)c1cc(S(=O)(=O)CC)c(N)cc1OC (stereo not drawn) [Amisulpride, 4-amino-N-(((1-ethyl-2-pyrrolidinyl)methyl)-5-(ethylsulfonyl))-2-methoxybenzamide] | – | – | – | without any affinity | without any affinity | without any affinity | not noted to have any activity | low affinity | low affinity | low affinity | low affinity | low affinity | lowest of 30 psychiatric drugs tested | – | –
CCN1CCCC1CNC(=O)c1cc(S(=O)(=O)CC)c(NC)cc1OC (racemic) [LB-102] | significant improvement | significant improvement | significant effect | – | – | – | – | – | – | – | – | – | – | comparable results | significant effect
